Experimental data from paper doi:10.1101/2021.04.08.439011v1 (biorxiv, 2021).

Legend:
Conditions in all cases: 0.1 µM; binder
ZAK = ZAK (Homo sapiens, UniProt Q9NYL2)
ACVR2B = ACVR2B (Homo sapiens, UniProt Q13705)
WNK3 = WNK3 (Homo sapiens, UniProt Q9BYP7)
MKK7 = MKK7 (Homo sapiens, UniProt O14733)
CDK19 = CDK19 (Homo sapiens, UniProt Q9BWU1)
GAK = GAK (Homo sapiens, UniProt O14976)
MET(Y1235D) = MET(Y1235D) (Homo sapiens, UniProt P08581, Y1235D)
FLT3(K663Q) = FLT3(K663Q) (Homo sapiens, UniProt P36888, K663Q)
CAMK1G = CAMK1G (Homo sapiens, UniProt Q96NX5)
CSNK1E = CSNK1E (Homo sapiens, UniProt P49674)
Chain of CSNK1E (P49674 whole entry): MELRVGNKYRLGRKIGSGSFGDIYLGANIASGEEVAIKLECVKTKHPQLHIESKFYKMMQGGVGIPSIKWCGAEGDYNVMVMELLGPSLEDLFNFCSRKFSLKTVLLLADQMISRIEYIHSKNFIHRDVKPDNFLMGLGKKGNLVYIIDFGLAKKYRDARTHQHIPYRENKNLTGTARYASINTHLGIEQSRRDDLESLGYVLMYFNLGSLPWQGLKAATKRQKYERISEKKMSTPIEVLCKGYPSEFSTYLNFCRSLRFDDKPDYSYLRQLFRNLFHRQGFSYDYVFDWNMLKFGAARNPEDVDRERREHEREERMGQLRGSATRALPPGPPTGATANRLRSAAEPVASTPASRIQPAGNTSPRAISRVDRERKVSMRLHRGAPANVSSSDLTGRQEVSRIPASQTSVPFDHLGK

CAMK2G = CAMK2G (Homo sapiens, UniProt Q13555)
JNK2 = JNK2 (Homo sapiens, UniProt P45984)
INSRR = INSRR (Homo sapiens, UniProt P14616)
GSK3A = GSK3A (Homo sapiens, UniProt P49840)
Chain of GSK3A (P49840 whole entry): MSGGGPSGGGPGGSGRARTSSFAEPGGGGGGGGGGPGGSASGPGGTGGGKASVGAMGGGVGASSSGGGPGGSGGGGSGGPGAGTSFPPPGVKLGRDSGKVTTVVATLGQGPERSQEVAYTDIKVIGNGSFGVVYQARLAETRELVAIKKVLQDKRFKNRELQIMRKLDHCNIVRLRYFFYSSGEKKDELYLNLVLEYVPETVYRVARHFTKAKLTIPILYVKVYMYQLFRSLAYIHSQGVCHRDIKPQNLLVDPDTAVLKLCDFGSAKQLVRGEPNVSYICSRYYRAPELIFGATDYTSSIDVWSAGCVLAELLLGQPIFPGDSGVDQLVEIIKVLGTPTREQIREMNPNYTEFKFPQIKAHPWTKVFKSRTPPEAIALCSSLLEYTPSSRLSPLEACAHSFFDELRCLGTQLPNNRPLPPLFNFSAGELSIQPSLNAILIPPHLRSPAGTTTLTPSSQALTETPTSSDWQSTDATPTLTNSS

AAK1 = AAK1 (Homo sapiens, UniProt Q2M2I8)
AURKA = AURKA (Homo sapiens, UniProt O14965)
MEK5 = MEK5 (Homo sapiens, UniProt Q13163)
Chain of MEK5 (Q13163 whole entry): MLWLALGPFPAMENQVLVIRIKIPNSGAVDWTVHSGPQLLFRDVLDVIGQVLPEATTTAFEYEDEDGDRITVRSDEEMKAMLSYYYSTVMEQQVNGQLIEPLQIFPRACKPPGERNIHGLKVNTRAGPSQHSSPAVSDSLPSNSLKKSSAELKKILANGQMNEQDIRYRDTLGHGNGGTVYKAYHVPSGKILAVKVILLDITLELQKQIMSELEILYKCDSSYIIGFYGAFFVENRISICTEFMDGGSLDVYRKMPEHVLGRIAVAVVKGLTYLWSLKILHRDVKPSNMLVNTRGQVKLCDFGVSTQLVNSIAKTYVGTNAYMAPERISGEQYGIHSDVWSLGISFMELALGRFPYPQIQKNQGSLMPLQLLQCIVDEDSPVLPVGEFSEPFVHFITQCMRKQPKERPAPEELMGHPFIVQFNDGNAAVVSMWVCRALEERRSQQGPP

STK16 = STK16 (Homo sapiens, UniProt O75716)
DDR1 = DDR1 (Homo sapiens, UniProt Q08345)
ADCK3 = ADCK3 (Homo sapiens, UniProt Q8NI60)
Chain of ADCK3 (Q8NI60 whole entry): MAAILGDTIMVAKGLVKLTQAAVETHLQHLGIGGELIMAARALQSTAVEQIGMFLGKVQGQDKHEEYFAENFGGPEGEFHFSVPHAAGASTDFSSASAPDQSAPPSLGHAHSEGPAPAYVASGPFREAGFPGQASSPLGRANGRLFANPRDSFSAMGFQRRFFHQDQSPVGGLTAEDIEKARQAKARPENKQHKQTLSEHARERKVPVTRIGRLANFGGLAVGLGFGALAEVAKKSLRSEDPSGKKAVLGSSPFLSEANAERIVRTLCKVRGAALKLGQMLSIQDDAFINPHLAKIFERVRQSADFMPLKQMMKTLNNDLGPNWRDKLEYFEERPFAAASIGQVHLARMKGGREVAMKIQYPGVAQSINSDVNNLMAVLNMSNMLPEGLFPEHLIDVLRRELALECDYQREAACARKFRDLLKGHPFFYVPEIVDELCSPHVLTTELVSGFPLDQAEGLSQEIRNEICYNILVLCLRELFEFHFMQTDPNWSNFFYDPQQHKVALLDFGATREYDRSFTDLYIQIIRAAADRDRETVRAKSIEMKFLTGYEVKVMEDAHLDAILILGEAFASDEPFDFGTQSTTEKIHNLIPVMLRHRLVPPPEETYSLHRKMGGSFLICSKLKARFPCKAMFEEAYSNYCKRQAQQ

CLK4 = CLK4 (Homo sapiens, UniProt Q9HAZ1)
Chain of CLK4 (Q9HAZ1 whole entry): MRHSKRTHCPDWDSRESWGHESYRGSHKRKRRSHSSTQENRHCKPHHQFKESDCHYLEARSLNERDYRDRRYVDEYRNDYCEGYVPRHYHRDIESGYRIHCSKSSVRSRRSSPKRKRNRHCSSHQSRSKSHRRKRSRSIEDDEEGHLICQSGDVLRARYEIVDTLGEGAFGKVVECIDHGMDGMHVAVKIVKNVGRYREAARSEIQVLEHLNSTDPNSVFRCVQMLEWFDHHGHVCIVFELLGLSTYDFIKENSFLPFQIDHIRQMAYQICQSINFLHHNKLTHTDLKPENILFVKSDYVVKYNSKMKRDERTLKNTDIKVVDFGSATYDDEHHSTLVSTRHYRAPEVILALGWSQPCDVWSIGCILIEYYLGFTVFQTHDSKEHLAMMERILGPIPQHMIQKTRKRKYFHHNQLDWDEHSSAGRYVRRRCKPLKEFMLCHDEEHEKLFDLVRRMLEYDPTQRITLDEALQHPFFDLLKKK

CSK = CSK (Homo sapiens, UniProt P41240)
TIE2 = TIE2 (Homo sapiens, UniProt Q02763)
PIK3CA = PIK3CA (Homo sapiens, UniProt P42336)
PAK2 = PAK2 (Homo sapiens, UniProt Q13177)
FLT1 = FLT1 (Homo sapiens, UniProt P17948)
Chain of FLT1 (P17948 whole entry): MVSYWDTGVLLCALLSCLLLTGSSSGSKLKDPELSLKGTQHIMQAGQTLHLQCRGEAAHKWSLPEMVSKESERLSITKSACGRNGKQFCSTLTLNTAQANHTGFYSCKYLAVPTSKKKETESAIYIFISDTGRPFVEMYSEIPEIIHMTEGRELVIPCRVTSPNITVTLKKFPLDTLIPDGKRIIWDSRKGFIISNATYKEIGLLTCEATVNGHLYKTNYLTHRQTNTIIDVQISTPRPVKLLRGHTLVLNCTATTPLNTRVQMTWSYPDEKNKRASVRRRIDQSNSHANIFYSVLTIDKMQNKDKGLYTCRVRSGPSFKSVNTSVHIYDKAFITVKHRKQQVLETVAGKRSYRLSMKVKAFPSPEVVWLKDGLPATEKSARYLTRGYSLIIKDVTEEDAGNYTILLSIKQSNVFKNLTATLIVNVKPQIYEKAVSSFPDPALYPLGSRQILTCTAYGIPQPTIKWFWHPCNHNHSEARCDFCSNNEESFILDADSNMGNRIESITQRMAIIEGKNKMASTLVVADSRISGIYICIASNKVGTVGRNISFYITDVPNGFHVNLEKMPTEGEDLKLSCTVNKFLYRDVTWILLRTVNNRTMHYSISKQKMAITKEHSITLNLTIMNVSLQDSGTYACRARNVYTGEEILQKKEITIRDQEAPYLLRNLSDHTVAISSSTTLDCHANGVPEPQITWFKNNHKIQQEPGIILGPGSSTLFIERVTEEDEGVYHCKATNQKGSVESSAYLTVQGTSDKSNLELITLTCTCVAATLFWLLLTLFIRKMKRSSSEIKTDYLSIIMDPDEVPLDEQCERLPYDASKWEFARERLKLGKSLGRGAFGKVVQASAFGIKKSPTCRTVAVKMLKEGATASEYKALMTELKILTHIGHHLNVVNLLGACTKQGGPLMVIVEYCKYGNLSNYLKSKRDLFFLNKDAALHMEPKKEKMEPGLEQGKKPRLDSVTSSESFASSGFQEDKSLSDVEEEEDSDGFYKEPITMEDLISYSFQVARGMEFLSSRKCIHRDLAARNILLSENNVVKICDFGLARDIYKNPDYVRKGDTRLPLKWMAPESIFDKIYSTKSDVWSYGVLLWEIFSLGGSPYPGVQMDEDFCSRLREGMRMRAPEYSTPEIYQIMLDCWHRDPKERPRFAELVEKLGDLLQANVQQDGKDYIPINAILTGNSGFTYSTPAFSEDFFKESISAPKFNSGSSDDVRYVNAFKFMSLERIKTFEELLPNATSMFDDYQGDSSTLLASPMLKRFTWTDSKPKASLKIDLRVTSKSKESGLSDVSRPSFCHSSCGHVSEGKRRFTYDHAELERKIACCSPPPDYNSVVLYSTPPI

JNK1 = JNK1 (Homo sapiens, UniProt P45983)
VPS34 = VPS34 (Homo sapiens, UniProt Q8NEB9)
CSNK1G1 = CSNK1G1 (Homo sapiens, UniProt Q9HCP0)
STK36 = STK36 (Homo sapiens, UniProt Q9NRP7)
PIK3C2G = PIK3C2G (Homo sapiens, UniProt O75747)

Chain of CDK19 (Q9BWU1 whole entry): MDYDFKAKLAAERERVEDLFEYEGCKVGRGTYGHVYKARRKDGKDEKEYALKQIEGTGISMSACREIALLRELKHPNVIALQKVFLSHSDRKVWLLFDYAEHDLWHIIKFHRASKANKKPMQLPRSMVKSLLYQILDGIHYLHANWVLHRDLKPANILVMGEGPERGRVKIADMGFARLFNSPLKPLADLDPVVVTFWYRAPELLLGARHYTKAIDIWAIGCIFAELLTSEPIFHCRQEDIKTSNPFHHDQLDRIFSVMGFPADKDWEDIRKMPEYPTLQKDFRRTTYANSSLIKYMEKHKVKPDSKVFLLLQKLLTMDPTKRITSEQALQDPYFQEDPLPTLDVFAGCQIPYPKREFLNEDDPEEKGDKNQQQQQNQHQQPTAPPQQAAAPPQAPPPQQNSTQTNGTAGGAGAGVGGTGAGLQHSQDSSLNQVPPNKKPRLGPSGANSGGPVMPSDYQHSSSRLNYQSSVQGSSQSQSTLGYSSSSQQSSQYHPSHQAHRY
Chain of ACVR2B (Q13705 whole entry): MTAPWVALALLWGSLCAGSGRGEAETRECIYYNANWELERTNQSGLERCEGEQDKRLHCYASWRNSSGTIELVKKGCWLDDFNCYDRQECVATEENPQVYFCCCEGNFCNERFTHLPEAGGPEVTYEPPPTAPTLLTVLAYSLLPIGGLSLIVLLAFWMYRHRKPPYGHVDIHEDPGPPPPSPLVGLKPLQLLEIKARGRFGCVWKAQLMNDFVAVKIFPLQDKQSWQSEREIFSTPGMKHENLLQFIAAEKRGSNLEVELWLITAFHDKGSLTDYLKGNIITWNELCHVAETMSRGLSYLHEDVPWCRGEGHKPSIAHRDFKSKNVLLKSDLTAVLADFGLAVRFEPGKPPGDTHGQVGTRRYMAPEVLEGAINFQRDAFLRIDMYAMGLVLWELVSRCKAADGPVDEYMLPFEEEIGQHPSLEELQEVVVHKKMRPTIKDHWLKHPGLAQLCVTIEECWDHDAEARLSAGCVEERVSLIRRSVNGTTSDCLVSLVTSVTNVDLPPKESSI

SMILES: CNc1ncc2cc(-c3ccc(-c4cccc(C)n4)cc3Cl)c(=O)n(C[C@H]3OC[C@H](N)CO3)c2n1 [compound 6, G-5555]
- Percent Control (ZAK): 97%
- Percent Control (ACVR2B): 100%
- Percent Control (WNK3): 100%
- Percent Control (MKK7): 86%
- Percent Control (CDK19): 87%
- Percent Control (GAK): 51%
- Percent Control (MET(Y1235D)): 100%
- Percent Control (FLT3(K663Q)): 100%
- Percent Control (CAMK1G): 100%
- Percent Control (CSNK1E): 100%
- Percent Control (CAMK2G): 100%
- Percent Control (JNK2): 100%
- Percent Control (INSRR): 100%
- Percent Control (GSK3A): 100%
- Percent Control (AAK1): 100%
- Percent Control (AURKA): 98%
- Percent Control (MEK5): 13%
- Percent Control (STK16): 100%
- Percent Control (DDR1): 100%
- Percent Control (ADCK3): 100%
- Percent Control (CLK4): 97%
- Percent Control (CSK): 100%
- Percent Control (TIE2): 87%
- Percent Control (PIK3CA): 94%
- Percent Control (PAK2): 13%
- Percent Control (FLT1): 94%
- Percent Control (JNK1): 80%
- Percent Control (VPS34): 86%
- Percent Control (CSNK1G1): 100%
- Percent Control (STK36): 36%
- Percent Control (PIK3C2G): 95%
